Data as given in a melting point compilation (Tetko et al.).

Row | melting point [°C] | SMILES
1 | 129 to 130 | O=C(CCc1ccccc1)/C(=N\O)c1ccccc1
2 | 7 | CCCc1ccccc1O
3 | 8 | CCCCCCCCOc1ccccc1
4 | 172 | CC/C(=C(/CC)c1ccc(O)cc1)c1ccc(O)cc1
5 | 214 | COc1ccc(C=Cc2ccc(OC)cc2)cc1
6 | 254 | COc1cccc(C=Cc2cc(C=Cc3cccc(OC)c3O)c([N+](=O)[O-])cc2[N+](=O)[O-])c1O
7 | 234 | FC(F)(F)C1N=NC(N=Cc2ccc(Cl)cc2)=N1 (stereo unspecified)
8 | 168 to 172 | CC1=CS(=O)(=O)c2ccc(Cl)cc21
9 | 240 | CC(=O)Nc1ccc(/C(=C\c2ccccc2NC(C)=O)C(=O)O)cc1
10 | 132 to 135 | Nc1cccc(S(=O)(=O)N2CCOCC2)c1
11 | 73 to 122 | CCCCCCCOc1ccc(N=[N+]([O-])c2ccc(OCCCCCCC)cc2)cc1
12 | 60 | CCOCCOC(=O)C(C)Oc1ccc(Oc2ncc(C(F)(F)F)cc2Cl)cc1 (stereo unspecified)
13 | 55 to 64 | C[C@]12CCC(=O)C=C1CCC2=O
14 | 87 | Cc1cc(Cl)nnc1Cl
15 | 73.8 to 75.1 | CC(=O)CC(=O)c1c(C)c(C)c(C)c(C)c1C
16 | 63 | O=Cc1ccc(Cl)c([N+](=O)[O-])c1
17 | 226 | Cc1cc(O)nc2ccccc12
18 | 9.7 | CCCCCCCCCCCCC#N
19 | 120 to 121 | CC(C)(C)c1cc(C(C)(C)C)c(O)cc1O
20 | 46 | COc1ccc(F)c(C=O)c1OC
21 | 136 to 137 | NC(=S)Nc1ccccc1[N+](=O)[O-]

Row | melting point [°C] | SMILES
22 | 114 | N#CCC(=O)NN
23 | 142 | CCOC1=NN(c2ccc([N+](=O)[O-])cc2)C(=O)C1
24 | 197 to 201 | COC(=O)c1nc[nH]c1C(=O)OC
25 | 135 | CSc1ccccc1/N=C/c1cc(C(C)(C)C)cc(C(C)(C)C)c1O
26 | 274 | O=C1NN=C(C(F)(F)F)C1=NNc1ccccc1C(=O)O
27 | 77.7 | N#CC(=NOCC1OCCO1)c1ccccc1
28 | 96 | O=c1ccc([N+](=O)[O-])cn1Cc1ccccc1
29 | 136 | Oc1c(Cl)c(O)c(Cl)c(O)c1Cl
30 | 65 | CN1CSCSC1
31 | 141 | Cc1ccc(C(C(=O)NC(C)(C)C)N(C)C(=O)CCCc2ccc3ccc4cccc5ccc2c3c45)cc1 (stereo unspecified)
32 | 132 to 134 | CC(=O)/C=C(\C)c1ccc(-c2ccccc2)cc1
33 | 144 to 145 | N#Cc1ccc(N)c(N)c1
34 | 220 | CNc1ccc(NC)c2c1C(=O)c1ccccc1C2=O
35 | 85 to 86 | CC(=O)OCc1cn(C(C)=O)c2ccccc12
36 | 218 to 220 | Cc1n[nH]c2c(=O)n(Cc3ccc(Cl)cc3)c(C)nc12
37 | 266 | CC1CCC2(OC1)OC1CC3C4CCC5CC(O)CCC5(C)C4CC(=O)C3(C)C1C2C (stereo unspecified)
38 | 76 | Cc1cccc(OCC(O)CNC(C)C)c1 (stereo unspecified)
39 | 67.5 | CC(=O)OCC(=O)O
40 | 133 | CCN(CC)Cc1c(N)c2ccccc2oc1=O
41 | 122 to 124 | Cc1sc2c(c1C)C(=O)CS(=O)(=O)N2C
42 | 163 | NN=C(/C(=N/N)c1ccc2ccccc2c1)c1ccccc1

Row | melting point [°C] | SMILES
43 | 153 to 156 | Cc1ccc(S(=O)(=O)NN=Cc2ccccc2[N+](=O)[O-])cc1
44 | 66 | O=C=Nc1ccc(Cl)c([N+](=O)[O-])c1
45 | 39 | Cc1ccc(F)cc1N
46 | 62 to 64 | OCc1nccs1
47 | 146 to 148 | CC(=O)Nc1cc([N+](=O)[O-])c(F)cc1F
48 | 144 | Cc1c(O)cccc1C(=O)O
49 | 188 | O=c1[nH]ncc2ccccc12
50 | 87 to 89 | O=S(=O)(Cl)c1ccc(-c2ccccn2)s1
51 | 45.5 | CCN(CC)c1ccc(Cl)cc1
52 | 228 to 230 | O=C(Nc1ccc(Br)cc1Br)C(C(F)(F)F)(C(F)(F)F)C(F)(F)F
53 | 148 | CC12CCCC1C1CCC3CC(O)CCC3(C)C1CC2 (stereo unspecified)
54 | 65 to 67 | O=Cc1ccc(Sc2ccccn2)o1
55 | 123 | CC(=O)NC1Cc2ccccc21 (stereo unspecified)
56 | 124 | CC(C)(C)NCC(O)COc1cccc2c1CC(O)C(O)C2 (stereo unspecified)
57 | 189 | COc1ccc(C=NNC(=O)c2ccncc2)cc1OC
58 | 84 | COc1cc(C=CC=O)ccc1O
59 | 30 to 34 | CCCC(CCC)C(C(=O)O)C(=O)OCC (stereo unspecified)
60 | 68 to 71 | N[C@H]1CC[C@H](N)CC1
61 | 136 to 137 | Oc1cc(C(F)(F)F)nc2c(Br)cccc12
62 | 251 to 254 | O=C1Nc2c(Cl)ccc(Cl)c2C1=O
63 | 145 to 146 | CC12CCC(C=C/C1=N\O)C2(C)C (stereo unspecified)

Row | melting point [°C] | SMILES
64 | 162 | COC(=O)CCC(C)C1CCC2C3C(O)C(O)C4CC(O)CCC4(C)C3CC(O)C12C (stereo unspecified)
65 | 38.5 | N#Cc1cc(C(F)(F)F)ccc1Cl
66 | 112 | COc1c(F)ccc(C(N)=O)c1F
67 | -32.4 | CCCCOC(=O)CCCCC(=O)OCCCC
68 | -12 | CCCCCCCC1CCCC(=O)O1 (stereo unspecified)
69 | 81.3 | OCc1ccc2ccccc2c1
70 | 135 | CC(C)(C)C=C=C=C=CC(C)(C)C
71 | 125 to 126 | CCOC(=O)c1[nH]c(C)cc1C
72 | 137 to 139 | O=S(=O)(Cl)c1c(Cl)nc2sccn12
73 | 55 to 57 | COC1=C(OC)/C(=C/CN=[N+]=[N-])OC1=O
74 | -124 | CC1C=CCCC1 (stereo unspecified)
75 | 34 to 35 | CCC(=O)Oc1cccc2ccccc12
76 | 102 to 106 | c1ccc(-c2ccccc2P(C2CCCCC2)C2CCCCC2)cc1
77 | 194 | Cc1c(C)c(CCl)c(C)c(C)c1CCl
78 | 38 to 39 | CNCc1ccc(N2CCOCC2)s1
79 | 105 to 107 | COc1ccc(C2c3cc(OC)c(OC)cc3CCN2C(C)=O)cc1 (stereo unspecified)
80 | 254 | Nc1cc(Cl)c(S(N)(=O)=O)cc1S(N)(=O)=O
81 | 75 | COc1ccc(C(C)=O)cc1Cl
82 | 83.1 | CCCCCCCCCCCCCCN
83 | 217 to 219 | Cc1nn(-c2ccccc2)nc1C(=O)NNS(=O)(=O)c1ccccc1
84 | 205 to 210 | CCOC(=O)c1c[nH]c2c(F)cccc2c1=O

Row | SMILES | melting point [°C]
85 | Cc1nc(N(C)C)nc(OC(=O)N(C)C)c1C | 91.6
86 | CBr | -93.7
87 | CN(C)CCC#N | -43
88 | O=C(NC(=O)c1c(F)cccc1F)Nc1cc(Cl)c(OC(F)(F)C(F)F)c(Cl)c1 | 204
89 | Cc1cc(C)c(C(=O)P(=O)(c2ccccc2)c2ccccc2)c(C)c1 | 90
90 | ClCc1ccc(Cl)nc1 | 40
91 | C=CCOc1c(Br)cc(C(C)(C)c2cc(Br)c(OCC=C)c(Br)c2)cc1Br | 119
92 | CN1CC[C@@H](c2ccc(F)cc2)[C@H](CO)C1 | 97 to 101
93 | Clc1ccc(N2CCNCC2)cc1Cl | 63
94 | CN1C2CCC1C(C(=O)O)C(O)C2 (stereo unspecified) | 205
95 | O=C(Nc1ccccc1)N(Cc1ccc(Cl)cc1)C1CCCC1 | 132
96 | NNc1ccccn1 | 46.6
